According to patent publication US20240368157A1, “FORMS AND COMPOSITIONS OF A JAK2 INHIBITOR” (Ajax Therapeutics, Inc., priority 2023, published 2024):

How the values were obtained:
[1] = target: T1, JAK3 (Homo sapiens, UniProt P52333); assay: JAK Family Selectivity Assay (JAK3 vs JAK2 binding affinity); settings: selectivity over JAK2
T1 construct: made in house; host or cells: E. coli (BL21-derived, T7 phage display) or HEK-293
T1 sequence (P52333 1-1124): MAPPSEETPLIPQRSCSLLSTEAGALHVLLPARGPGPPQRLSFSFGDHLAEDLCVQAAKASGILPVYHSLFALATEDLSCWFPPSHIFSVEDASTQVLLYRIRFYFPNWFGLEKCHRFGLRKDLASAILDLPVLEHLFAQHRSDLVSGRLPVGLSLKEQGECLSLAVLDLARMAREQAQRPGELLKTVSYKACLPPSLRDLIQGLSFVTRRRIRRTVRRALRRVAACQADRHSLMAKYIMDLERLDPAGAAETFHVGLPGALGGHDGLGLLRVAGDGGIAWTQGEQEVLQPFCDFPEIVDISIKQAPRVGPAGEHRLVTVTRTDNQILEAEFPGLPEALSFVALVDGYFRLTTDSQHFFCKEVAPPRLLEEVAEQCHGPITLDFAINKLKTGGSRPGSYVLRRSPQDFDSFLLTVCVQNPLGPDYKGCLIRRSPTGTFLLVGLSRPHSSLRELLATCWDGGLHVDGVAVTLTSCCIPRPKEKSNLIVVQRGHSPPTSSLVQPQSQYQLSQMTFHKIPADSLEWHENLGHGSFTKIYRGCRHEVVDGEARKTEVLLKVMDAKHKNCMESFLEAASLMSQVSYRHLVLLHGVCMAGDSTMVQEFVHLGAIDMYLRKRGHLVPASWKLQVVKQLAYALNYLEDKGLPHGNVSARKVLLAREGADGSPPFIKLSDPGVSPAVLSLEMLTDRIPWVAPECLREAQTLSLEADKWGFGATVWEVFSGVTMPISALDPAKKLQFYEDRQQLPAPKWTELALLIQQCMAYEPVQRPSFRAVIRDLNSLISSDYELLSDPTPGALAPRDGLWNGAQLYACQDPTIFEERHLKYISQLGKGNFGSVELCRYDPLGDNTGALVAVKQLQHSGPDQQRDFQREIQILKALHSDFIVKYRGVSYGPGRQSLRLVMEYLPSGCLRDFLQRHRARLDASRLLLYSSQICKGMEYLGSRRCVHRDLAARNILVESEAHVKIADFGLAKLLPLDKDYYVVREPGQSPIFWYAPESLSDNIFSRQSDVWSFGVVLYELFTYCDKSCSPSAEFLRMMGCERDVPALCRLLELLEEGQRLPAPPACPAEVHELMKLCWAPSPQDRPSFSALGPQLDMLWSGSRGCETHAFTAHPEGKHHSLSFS
Description: (§1) Provided compounds are evaluated for selectivity by comparing their JAK2 binding affinity (Kd) in the above JAK2 Binding Assay with their binding affinity (Kd) for one or more other kinases. Binding affinity for other kinases is determined as follows: Kinase-tagged T7 phage strains are prepared in an E. coli host derived from the BL21 strain. E. coli are grown to log-phase and infected with T7 phage and incubated with shaking at 32° C. until lysis. The lysates are centrifuged and filtered to remove cell debris. The remaining kinases are produced in HEK-293 cells and subsequently tagged with DNA for qPCR detection. Streptavidin-coated magnetic beads are treated with biotinylated small molecule ligands for 30 minutes at room temperature to generate affinity resins for kinase assays. The liganded beads are blocked with excess biotin and washed with blocking buffer (SeaBlock (Pierce), 1% BSA, 0.05% Tween 20, 1 mM DTT) to remove unbound ligand and to reduce non-specific binding. Binding reactions are assembled by combining kinases, liganded affinity beads, and test compounds in 1× binding buffer (20% SeaBlock, 0.17×PBS, 0.05% Tween 20, 6 mM DTT). Test compounds are prepared as 111× stocks in 100% DMSO. Kds are determined using an 11-point 3-fold compound dilution series with three DMSO control points. […] The kinase concentration in the eluates is measured by qPCR. […]

[2] = Hepatocyte Stability Assay (human hepatocytes); assay type: in vitro ADME; settings: cryopreserved hepatocytes, read-out: Human Heps CLint
Description: 10 mM stock solutions of test compound and positive control are prepared in DMSO. Stock solutions are diluted to 100 μM by combining 198 μL of 50% acetonitrile/50% water and 2 μL of 10 mM stock solution. Verapamil is used as positive control in the assay. Vials of cryopreserved hepatocytes are thawed in a 37° C. water bath with gently shaking. The contents are poured into the 50 mL thawing medium conical tube. Vials are centrifuged at 100 g for 10 minutes at room temperature. Thawing medium is aspirated and hepatocytes are re-suspended with serum-free incubation medium to yield ˜1.5×10^6 cells/mL. Cell viability and density are counted using a Trypan Blue exclusion, and then cells are diluted with serum-free incubation medium to a working cell density of 0.5×10^6 viable cells/mL. A portion of the hepatocytes at 0.5×10^6 viable cells/mL are boiled for 5 min prior to adding to the plate as negative control to eliminate the enzymatic activity so that little or no substrate turnover should be observed. Aliquots of 198 μL hepatocytes are dispensed into each well of a 96-well non-coated plate. The plate is placed in the incubator for approximately 10 minutes. Aliquots of 2 μL of the 100 μM test compound and 2 μL positive control are added into respective wells of a non-coated 96-well plate to start the reaction. The final concentration of test compound is 1 μM. […]

[3] = target: T2, JAK1 (Homo sapiens, UniProt P23458); assay: JAK Family Selectivity Assay (JAK1 vs JAK2 binding affinity); settings: selectivity over JAK2
T2 construct: made in house; host or cells: E. coli (BL21-derived, T7 phage display) or HEK-293
T2 sequence (P23458 whole entry): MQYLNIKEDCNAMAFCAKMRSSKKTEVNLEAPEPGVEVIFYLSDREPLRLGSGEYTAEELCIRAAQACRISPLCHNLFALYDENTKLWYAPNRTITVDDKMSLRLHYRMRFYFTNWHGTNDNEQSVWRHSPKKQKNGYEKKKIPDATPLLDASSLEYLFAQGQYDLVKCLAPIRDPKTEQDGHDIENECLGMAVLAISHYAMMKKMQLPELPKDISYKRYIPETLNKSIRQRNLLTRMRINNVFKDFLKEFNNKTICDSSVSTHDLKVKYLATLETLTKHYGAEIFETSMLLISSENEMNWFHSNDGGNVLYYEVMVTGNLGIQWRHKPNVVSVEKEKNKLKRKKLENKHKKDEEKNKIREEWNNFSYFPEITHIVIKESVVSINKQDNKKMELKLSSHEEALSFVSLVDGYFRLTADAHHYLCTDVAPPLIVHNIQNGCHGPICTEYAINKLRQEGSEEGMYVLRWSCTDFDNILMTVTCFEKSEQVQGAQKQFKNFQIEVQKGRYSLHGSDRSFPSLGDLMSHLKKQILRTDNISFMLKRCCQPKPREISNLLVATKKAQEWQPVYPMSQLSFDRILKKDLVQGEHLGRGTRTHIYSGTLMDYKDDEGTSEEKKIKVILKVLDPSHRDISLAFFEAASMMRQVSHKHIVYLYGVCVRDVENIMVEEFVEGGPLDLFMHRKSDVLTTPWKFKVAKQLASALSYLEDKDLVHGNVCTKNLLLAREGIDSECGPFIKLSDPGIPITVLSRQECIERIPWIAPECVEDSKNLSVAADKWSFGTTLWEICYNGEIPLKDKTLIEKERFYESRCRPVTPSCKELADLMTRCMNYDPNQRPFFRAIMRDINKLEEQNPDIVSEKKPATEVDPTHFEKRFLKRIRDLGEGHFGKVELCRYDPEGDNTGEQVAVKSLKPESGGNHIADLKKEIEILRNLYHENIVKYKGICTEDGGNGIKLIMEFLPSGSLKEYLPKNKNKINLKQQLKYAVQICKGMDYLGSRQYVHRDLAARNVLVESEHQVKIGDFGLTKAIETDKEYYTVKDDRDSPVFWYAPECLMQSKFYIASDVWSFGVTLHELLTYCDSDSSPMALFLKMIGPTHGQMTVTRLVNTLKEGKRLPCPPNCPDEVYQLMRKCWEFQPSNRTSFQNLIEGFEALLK
Description: as §1

| Structure (SMILES) | JAK3/JAK2 Kd/Kd ratio [1] | CLint scaled at 1 μM [2] [mL/min/kg] | JAK1/JAK2 Kd/Kd ratio [3] |
| --- | --- | --- | --- |
| CN(C)C(=O)Nc1cc(Oc2cnc3nc(Nc4cc(C(F)(F)F)cn(C)c4=O)n(C)c3c2C#N)ccn1 [Compound 1, 3-(4-((7-cyano-1-methyl-2-((1-methyl-2-oxo-5-(trifluoromethyl)-1,2-dihydropyridin-3-yl)amino)-1H-imidazo[4,5-b]pyridin-6-yl)oxy)pyridin-2-yl)-1,1-dimethylurea] | A (Kd/Kd ratio≥1000) | ≤ 6 | B (Kd/Kd ratio<1000 and ≥300) |
| CCN1CCN(Cc2ccc(Nc3nc4ccc(Oc5ccnc(NC(C)=O)c5)cc4n3C)cc2C(F)(F)F)CC1 [Compound R-1, reference compound] | A (Kd/Kd ratio≥1000) | 12 to 20 | C (Kd/Kd ratio<300 and ≥100) |
